In patent US20260085062A1, “NOVEL COMPOUNDS AS CK2 INHIBITORS” (Cambridge Enterprise Limited, priority 2022, published 2026):

Experiments:
CK2α = molecular target: T1, CK2α (Homo sapiens, UniProt P68400); assay: Biochemical assay for inhibitors of CK2α kinase activity (ADP-Glo); details: 0.2 nM CK2α, 50 μM peptide substrate, 15 μM ATP, read-out: Assay 1: CK2α Enzyme IC50
T1 construct: CK2α (residues 2-329) was produced in Escherichia coli BL21 (DE3) for kinase activity screening; His6 (N, cleaved yes); made in house; host or cells: Escherichia coli BL21 (DE3)
T1 sequence (P68400 2-329): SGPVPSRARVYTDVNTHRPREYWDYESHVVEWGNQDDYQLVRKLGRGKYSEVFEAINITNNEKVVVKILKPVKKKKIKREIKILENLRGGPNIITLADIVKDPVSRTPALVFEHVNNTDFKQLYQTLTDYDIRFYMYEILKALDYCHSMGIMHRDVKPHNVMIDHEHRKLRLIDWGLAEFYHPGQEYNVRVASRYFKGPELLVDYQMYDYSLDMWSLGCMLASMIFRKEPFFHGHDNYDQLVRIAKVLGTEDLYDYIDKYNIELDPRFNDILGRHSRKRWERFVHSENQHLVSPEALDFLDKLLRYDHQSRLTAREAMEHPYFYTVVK

CLK2 = molecular target: T2, CLK2 (Homo sapiens, UniProt P49760); assay: Biochemical assay for inhibitors of CLK2 kinase activity (ADP-Glo); details: 20 nM CLK2, 50 μM peptide substrate, 100 μM ATP, read-out: Assay 2: CLK2 Enzyme IC50
T2 construct: purchased Carna Biosciences 04-127

intracellular CK2α = molecular target: T3, intracellular CK2α (Homo sapiens, UniProt P19784); assay: Cell-based NanoBRET assay for inhibitor binding to intracellular CK2α; details: HCT116 cells transiently transfected with CSNK2A2-NanoLuc fusion vector; Tracer K-5; 2 h; read-out: Assay 3: NanoBRET ™ assay for binding to intracellular CK2α
T3 construct: host or cells: HCT116 (ATCC CCL-247)
Method in brief: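 Apparent affinity came from BRET ratio (acceptor/donor ×1,000), with donor read at 450 nm and acceptor at 610 or 630 nm. Compounds competed off a tracer added at fixed concentration to cells carrying a NanoLuc-CK2α fusion.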

T2 sequence (P49760 whole entry): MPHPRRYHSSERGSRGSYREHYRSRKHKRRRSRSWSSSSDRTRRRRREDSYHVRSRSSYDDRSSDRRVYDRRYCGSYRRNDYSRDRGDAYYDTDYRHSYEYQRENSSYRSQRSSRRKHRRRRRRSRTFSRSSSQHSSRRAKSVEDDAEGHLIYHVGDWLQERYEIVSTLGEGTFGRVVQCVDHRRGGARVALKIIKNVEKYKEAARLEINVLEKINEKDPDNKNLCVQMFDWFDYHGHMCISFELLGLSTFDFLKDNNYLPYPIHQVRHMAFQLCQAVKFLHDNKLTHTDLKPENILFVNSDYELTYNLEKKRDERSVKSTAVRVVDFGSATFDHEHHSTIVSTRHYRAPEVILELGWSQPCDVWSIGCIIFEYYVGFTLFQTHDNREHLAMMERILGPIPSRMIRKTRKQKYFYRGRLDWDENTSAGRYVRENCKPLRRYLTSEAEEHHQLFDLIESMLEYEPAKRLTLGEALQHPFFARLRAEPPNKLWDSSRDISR
T3 sequence (P19784 whole entry, the tested form may be a part): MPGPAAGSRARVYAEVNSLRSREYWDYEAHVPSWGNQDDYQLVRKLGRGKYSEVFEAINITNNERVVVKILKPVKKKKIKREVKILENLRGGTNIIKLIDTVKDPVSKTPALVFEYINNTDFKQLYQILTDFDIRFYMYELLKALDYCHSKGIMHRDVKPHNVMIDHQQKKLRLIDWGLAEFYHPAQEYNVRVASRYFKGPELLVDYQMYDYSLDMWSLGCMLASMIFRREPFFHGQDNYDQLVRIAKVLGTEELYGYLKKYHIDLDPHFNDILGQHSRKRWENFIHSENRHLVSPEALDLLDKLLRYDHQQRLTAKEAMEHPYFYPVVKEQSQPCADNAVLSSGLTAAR

Row | Compound | IC50 (CK2α) [nM] | IC50 (CLK2) [nM] | IC50 (intracellular CK2α) [nM]
1 | O=C(CCNCc1ccc(OC(F)(F)F)c(Cl)c1)NCCCNc1cc(-n2cnnc2)c(Cl)c2[nH]ncc12 [Example 181, 3-((3-chloro-4-(trifluoromethoxy)benzyl)amino)-N-(3-((7-chloro-6-(4H-1,2,4-triazol-4-yl)-1H-indazol-4-yl)amino)propyl)propanamide] | 17 | 448 | 11400
2 | Cc1cc(CC#N)cc(CNCCCCOC2CN(c3cc(-c4cnoc4)cc4[nH]ncc34)C2)c1 [Example 121, 2-(3-(((4-((1-(6-(isoxazol-4-yl)-1H-indazol-4-yl)azetidin-3-yl)oxy)butyl)amino)methyl)-5-methylphenyl)acetonitrile] | 44.9 | 209 | 3670
3 | O=C(O)CCc1cc(NCCOCCCCNCc2cc3cc(C(F)(F)F)ccc3[nH]2)c2cn[nH]c2c1 [Example 89, 3-(4-((2-(4-(((5-(trifluoromethyl)-1H-indol-2-yl)methyl)amino)butoxy)ethyl)amino)-1H-indazol-6-yl)propanoic acid] | > 1000 | 18400 | > 50000
4 | N#CCc1cc(CNCCCCOC2CN(c3cc(-c4ccnnc4)cc4[nH]ncc34)C2)cc(OC(F)(F)F)c1 [Example 134, 2-(3-(((4-((1-(6-(pyridazin-4-yl)-1H-indazol-4-yl)azetidin-3-yl)oxy)butyl)amino)methyl)-5-(trifluoromethoxy)phenyl)acetonitrile] | 5.25 | 2680 | 809
5 | OCCOc1cc(CNC2CC(COCCNc3cc(-c4cnns4)cc4[nH]ncc34)C2)cc(OC(F)(F)F)c1 (stereo not drawn) [Example 205] | 12.7 | 214 | 467
6 | FC(F)(F)Oc1ccc(CNCCCCOCCNc2cc(-c3ccnnc3)cc3[nH]nnc23)cc1Cl [Example 99, N-(2-(4-((3-chloro-4-(trifluoromethoxy)benzyl)amino)butoxy)ethyl)-6-(pyridazin-4-yl)-1H-benzo[d][1,2,3]triazol-4-amine] | 20.1 | 28000 | 1010
7 | O=C(CCNCc1ccc(OC(F)(F)F)c(Cl)c1)NCCCNc1cc(-c2ncns2)cc2[nH]ncc12 [Example 183, N-(3-((6-(1,2,4-thiadiazol-5-yl)-1H-indazol-4-yl)amino)propyl)-3-((3-chloro-4-(trifluoromethoxy)benzyl)amino)propanamide] | 2.39 | 907 | 145
8 | Cn1c(CNCCCCOCCNc2cc(-n3cnnc3)cc3[nH]ncc23)nc2ccc(Cl)cc21 [Example 68, N-(2-(4-(((6-chloro-1-methyl-1H-benzo[d]imidazol-2-yl)methyl)amino)butoxy)ethyl)-6-(4H-1,2,4-triazol-4-yl)-1H-indazol-4-amine] | 136 | 566 | 18700
9 | COC(=O)CCc1cc(NCCOCCCCNCc2cc3cc(C(F)(F)F)ccc3[nH]2)c2cn[nH]c2c1 [Example 88, methyl 3-(4-((2-(4-(((5-(trifluoromethyl)-1H-indol-2-yl)methyl)amino)butoxy)ethyl)amino)-1H-indazol-6-yl)propanoate] | > 1000 | 41300 | > 50000
10 | O=C(CCNCc1ccc(-c2ccccc2CO)c(Cl)c1)NCCCNc1cc(-n2cnnc2)cc2[nH]ncc12 [Example 58, N-(3-((6-(4H-1,2,4-triazol-4-yl)-1H-indazol-4-yl)amino)propyl)-3-(((2-chloro-2′-(hydroxymethyl)-[1,1′-biphenyl]-4-yl)methyl)amino)propanamide] | 0.28 | 40.9 | 9290
11 | O=C(CCNCc1n[nH]c(-c2ccccc2)c1Cl)NCCCNc1cc(-n2cnnc2)cc2[nH]ncc12 [Example 34, N-(3-((6-(4H-1,2,4-triazol-4-yl)-1H-indazol-4-yl)amino)propyl)-3-(((4-chloro-5-phenyl-1H-pyrazol-3-yl)methyl)amino)propanamide] | 3.32 | 70.8 | 9890
12 | O=C(CCNCc1ccc(-c2ccccc2)c(Cl)c1)NCCCNc1cc(-n2cncn2)cc2[nH]ncc12 [Example 4, N-(3-((6-(1H-1,2,4-triazol-1-yl)-1H-indazol-4-yl)amino)propyl)-3-(((2-chloro-[1,1′-biphenyl]-4-yl)methyl)amino)propanamide] | 3.63 | 1010 | 242
13 | COC(=O)c1cc(NCCOCCCCNCc2cc3cc(C(F)(F)F)ccc3[nH]2)c2cn[nH]c2c1 [Example 84, methyl4-((2-(4-(((5-(trifluoromethyl)-1H-indol-2-yl)methyl)amino)butoxy)ethyl)amino)-1H-indazole-6-carboxylate] | 395 | 10500 | 36500
14 | FC(F)(F)c1ccc2[nH]c(CNCCCCOCCOc3cc(-c4ccnnc4)cc4[nH]nnc34)cc2c1 [Example 101, 4-(2-((6-(pyridazin-4-yl)-1H-benzo[d][1,2,3]triazol-4-yl)oxy)ethoxy)-N-((5-(trifluoromethyl)-1H-indol-2-yl)methyl)butan-1-amine] | 223 | 48600 | > 50000

Continued by falling IC50 (CK2α), values first:

Row | IC50 (CK2α) [nM] | IC50 (CLK2) [nM] | IC50 (intracellular CK2α) [nM] | Compound
15 | 187 | 39800 | 19300 | N#CCc1cc(CNCCCCOC2CN(c3cc(-c4ccnnc4)cc4[nH]nnc34)C2)cc(OC(F)(F)F)c1 [Example 151, 2-(3-(((4-((1-(6-(pyridazin-4-yl)-1H-benzo[d][1,2,3]triazol-4-yl)azetidin-3-yl)oxy)butyl)amino)methyl)-5-(trifluoromethoxy)phenyl)acetonitrile]
16 | 182 | 14300 | 29600 | CN(C)C(=O)c1cc(NCCCNC(=O)CCNCc2ccc(-c3ccccc3)c(Cl)c2)c2cn[nH]c2c1 [Example 62, 4-((3-(3-(((2-chloro-[1,1'-biphenyl]-4-yl)methyl)amino)propanamido)propyl)amino)-N,N-dimethyl-1H-indazole-6-carboxamide]
17 | 126 | 44600 | > 50000 | O=C(CCNCc1ccc(OC(F)(F)F)c(Cl)c1)NCCCNCc1cc(-n2cnnc2)cc2[nH]ncc12 [Example 172, N-(3-(((6-(4H-1,2,4-triazol-4-yl)-1H-indazol-4-yl)methyl)amino)propyl)-3-((3-chloro-4-(trifluoromethoxy)benzyl)amino)propanamide]
18 | 46.7 | 1920 | 8050 | Cc1nccn1-c1cc(NCCCNC(=O)CCNCc2ccc(-c3ccccc3)c(Cl)c2)c2cn[nH]c2c1 [Example 80, 3-(((2-chloro-[1,1′-biphenyl]-4-yl)methyl)amino)-N-(3-((6-(2-methyl-1H-imidazol-1-yl)-1H-indazol-4-yl)amino)propyl)propanamide]
19 | 20.9 | 2730 | 2380 | Fc1cc(CNCCCCOC2CN(c3cc(-c4ccnnc4)cc4[nH]ncc34)C2)ccc1OC(F)(F)F [Example 108, N-(3-fluoro-4-(trifluoromethoxy)benzyl)-4-((1-(6-(pyridazin-4-yl)-1H-indazol-4-yl)azetidin-3-yl)oxy) butan-1-amine]
20 | 14.1 | 371 | 3400 | FC(F)(F)Oc1ccc(CNCCc2nnc(CCNc3cc(-n4cnnc4)cc4[nH]ncc34)[nH]2)cc1Cl [Example 16, N-(2-(5-(2-((3-chloro-4-(trifluoromethoxy)benzyl)amino)ethyl)-4H-1,2,4-triazol-3-yl)ethyl)-6-(4H-1,2,4-triazol-4-yl)-1H-indazol-4-amine]
21 | 6.94 | 83.8 | > 50000 | O=C(CCNCc1cccc(OCCO)c1)NCCCNc1cc(-n2cnnc2)cc2[nH]ncc12 [Example 42, N-(3-((6-(4H-1,2,4-triazol-4-yl)-1H-indazol-4-yl)amino)propyl)-3-((3-(2-hydroxyethoxy)benzyl)amino)propanamide]
22 | 2.81 | 1620 | 4420 | O=C(CCNCc1ccc(OC(F)(F)F)c(Cl)c1)NCCC(=O)Nc1cc(-n2cnnc2)cc2[nH]ncc12 [Example 18, N-(6-(4H-1,2,4-triazol-4-yl)-1H-indazol-4-yl)-3-(3-((3-chloro-4-(trifluoromethoxy)benzyl)amino)propanamido)propanamide]
23 | 0.78 | 30.7 | 960 | O=C(CCNCc1cc2ccc(Cl)cc2[nH]1)NCCCNc1cc(-n2cnnc2)cc2[nH]ncc12 [Example 37, N-(3-((6-(4H-1,2,4-triazol-4-yl)-1H-indazol-4-yl)amino)propyl)-3-(((6-chloro-1H-indol-2-yl)methyl)amino)propanamide]
24 | 0.48 | 77.8 | 452 | O=C(CCNCc1ccc(OC(F)(F)F)c(Cl)c1)NCCCNc1cc(-n2cnnc2)cc2[nH]ncc12 [Example 33, N-(3-((6-(4H-1,2,4-triazol-4-yl)-1H-indazol-4-yl)amino)propyl)-3-((3-chloro-4-(trifluoromethoxy)benzyl)amino)propanamide]
